In US20240294570A1, “ENZYMATICALLY FORMING INTRANUCLEAR PEPTIDE ASSEMBLIES FOR SELECTIVELY KILLING INDUCED PLURIPOTENT STEM CELLS” (BRANDEIS UNIVERSITY, priority 2021, published 2024):
Non-standard residues stand in square brackets, D forms with d. Residues, ends and D or L forms follow the SMILES beside them. No end group written: not given here. *: point of attachment. pY = N[C@@H](Cc1ccc(OP(=O)(O)O)cc1)C(=O)O; NBD = O=[N+]([O-])c1ccc(*)c2nonc12; βAla = NCCC(=O)O

Tests used:
[1] = Enzymatic self-assembly in vitro, nanostructures by TEM; type: physicochemical; conditions: for diameters of nanofibers: after dephosphorylation at 400 μM by ALP (0.5 U/mL)
Procedure: TEM Sample Preparation: After placing 5 μL samples on 400 mesh copper grids coated with continuous thick carbon film (˜35 nm) which is glowed discharged, we washed the grid with ddH2O and UA (uranyl acetate). The sample loaded grid was stained with the UA. The residual UA was removed by filter paper and then dried in air. TEM images were obtained with Morgagni 268 transmission electron microscope.
After obtaining all the precursors, their behaviors for EISA were evaluated in vitro using transmission electron microscopes (TEM) to examine the nanostructures formed before and after the ALP catalyzed dephosphorylation of precursors 5, 7, and 9. […] The critical micelle concentration (CMC) of 5 is 86.1 μM. […] The CMC of 6 is 8.1 μM. Unlike the case of 5, dephosphorylation of 7 or 9 at 400 μM by ALP (0.5 U/mL) produces nanofibers with the diameters of 6±2 nm or 9±2 nm, whose CMC is 87.4 μM or 25.8 μM, respectively.
A key requirement for selectively eliminating iPSCs by EISA is that the L-peptide nanoribbons only form on and in iPSCs, which overexpress ALP, but not on and in the differentiated cells that express normal level of ALP. That is, L-peptide nanoribbons should only rapidly form at high level of ALP, but not at normal level of ALP. […] Thus, after assessing the level of ALP expression in iPSCs, it should be possible to optimizing the initial concentration of a peptide and the time of dephosphorylation, to promote EISA that selectively targets iPSCs.

[2] = Degradation in HS-5 cell lysate (LC-MS)
[3] = Critical micelle concentration (CMC) measurement with pyrene probe; type: physicochemical; conditions: for CMC of the nanofiber-forming product of dephosphorylation: product after dephosphorylation at 400 μM by ALP (0.5 U/mL)
Procedure: Critical Micelle Concentration ((MC) Measurement: The CMCs were determined using pyrene as the fluorescent probe. Different concentrations of compounds were prepared in pyrene-saturate solutions. The fluorescence spectra of pyrene solutions with different concentration compounds were obtained. The intensity ratio of 378 nm/393 nm (I378/I393) was determined by a Synergy H1 hybrid multi-mode microplate reader. Plot I378/I393 against the concentrations of compounds. The concentration at the turning point is the CMC.

[4] = system: iPSCs; test: Cell viability of iPSCs (trypan blue); type: cell-based, human; conditions: 400 μM, 2 h
Procedure: Cell Culture: Human induced pluripotent stem cell line A21 was generated from human normal dermal fibroblasts by using the StemRNA™-NM Reprogramming kit (Stemgent, Cat #00-0076). hiPSCs were routinely cultured and passaged on 6-well plates coated with 0.25 μg/cm^2 iMatrix-511 (Recombinant Laminin-511) (ReproCell) with NutriStem XF/FFTM medium (Biological Industries). HS-5 cell line and HEK293 cell line were purchased from American Type Culture Collection (ATCC, USA). HS-5 cells were cultured in Dulbecco's Modified Eagle Medium (DMEM) supplemented with 10% fetal bovine serum (FBS), 100 U/mL penicillin and 100 μg/mL streptomycin. HEK293 cells were cultured in Minimal Essential Medium (MEM) supplemented with 10% fetal bovine serum (FBS), 100 U/mL penicillin and 100 μg/mL streptomycin. All cells were maintained at 37° C. in a humidified atmosphere of 5% CO2.
Cell Viability of iPSC's: iPSCs were plated in 6-well plates and incubated for 24 to 48 hours, then media were replaced with fresh one (2 ml) supplemented with PBS (control) 5 (200 μM, 300 μM, and 400 μM), 7 (400 μM) or 9 (400 μM), and incubated for 2 hours. Media were removed and cells were rinsed with PBS once, fresh normal cultural media were added and incubated for 30 min. All cells were collected and stained with trypan blue, live cells were counted using Cellometer Auto 2000 (Nexcelom Bioscience). Data were obtained by from three independent wells (n=3).

[5] = system: iPSCs; test: CLSM imaging of peptide assemblies in iPSCs; type: cell-based, human; conditions: 400 μM, 2 hours
Procedure: Confocal Laser Scanning Microscopy (CLSM) Imaging: For live cell imaging, cells in exponential growth phase were seeded in a confocal dish (3.5 cm) at 1.0×10^5 cells per dish and then incubated in incubator for 24 h. We removed culture medium, and added fresh medium containing precursors for different time points. After removing the medium and washing the cells with live cell imaging solution (2 mL×2), the cells were used for CLSM imaging. For time-dependent live cell imaging, cells in exponential growth phase were seeded in a confocal dish (3.5 cm) at 1.0×10^5 cells per dish and then incubated in incubator for 24 h. After removing culture medium, we treated the cells with 1 mL of Hoechst 33342 (1 μg mL^−1) for 10 minutes. After being washed with culture medium (2 mL×2), the cells were incubated with fresh medium containing precursor 5 in a Tokai Hit stage top incubator (STXF-WSKMX-SET) to be used for CLSM imaging. All the CLSM images were obtained using Zeiss LSM 880 confocal microscopy at the lens of 63× with oil. The lasers used are 405 nm and 488 nm.
Because the fluorescence of NBD increases drastically from unassembled to assembled state, confocal laser scanning microscopy (CLSM) was suitable to reveal the cellular location of the peptide assemblies formed after dephosphorylation catalyzed by ALP. […] The blackness in nuclei overlaps well with the strong fluorescence. […] The results confirms that the nucleus-targeting mainly originates from the ALP catalyzed dephosphorylation.
To trace the dynamics of the formation and distribution of 5 inside iPSC cells, time-lapse CLSM was also used to image the changes of the fluorescence in the iPSCs incubated by 5 (400 μM). Using one cell as a representative case, after 6 minutes incubation fluorescent puncta appear on the membrane, likely originating from the aggregates of assemblies of 5 and those of 6 generated by the dephosphorylation catalyzed by ALP. […] After 24 minutes incubation, fluorescence starts to grow in the cytoplasm. Considering the LLLLY motif in SEQ ID NO: 2 constitutes the transmembrane domains of 18 human membrane proteins, it is possible that the affinity of 5 or 6 to membrane allows the assemblies of the mixture of 5 and 6 to interact with cellular membranes, which then facilitates nuclear localization. At about 28 minutes of incubation, fluorescence appears in the nucleus. Moreover, the nuclei shrink after the assemblies emerge in the nuclei. In addition, the nuclei also show nuclear blebbing (Stephens et al., “Chromatin Histone Modifications and Rigidity Affect Nuclear Morphology Independent of Lamins,” Mol. Biol. Cell 29(2):220-233 (2018), which is hereby incorporated by reference in its entirety). The shrinkage of nuclei and nuclear blebbing likely associate with iPSC death. To further examine the dynamics of EISA-formed peptide assemblies in iPSCs over different time, the increase of fluorescence in two cells over 2 hours was monitored; their nuclei, A and B, are shown in FIG. 10A. […] The mean fluorescent intensity in Nucleus A starts to increase at 28 minutes and levels off after 110 minutes. For Nucleus B, the mean fluorescent intensity keeps increasing from 38 minutes. The increases of the fluorescence in the nuclei and nucleoli are synchronous. […] The assemblies inside the nuclei or near nuclear membrane induce nuclear blebbing and shrinkage of nuclei, which likely contributes to the cell death.

[6] = system: ALP; test: Dephosphorylation rate measurement (LC-MS); conditions: for conversion ratio to dephosphorylated peptide / half-life at 100 μM / half-life at 200 μM: 0.5 U/mL ALP; for conversion ratio to dephosphorylated peptide: after 5 h of incubation; for half-life at 400 μM / half-life at 100 μM / half-life at 200 μM: alkaline phosphatase (ALP) in PBS; for half-life at 100 μM / half-life at 200 μM: half-life of dephosphorylation
Procedure: The reaction mixtures were analyzed with LC-MS.
Thus, the conversion of the phosphopentapeptides to their corresponding peptides was examined over time.

4: de-phosphorylated form of 3: NBD-bAla-Leu-Leu-Leu-Tyr (SEQ ID NO: 1) ({NBD}-[βAla]LLLY) [compound 4]
self-assembling ability ([1]; formed from 3 upon dephosphorylation by ALP): limited self-assembling ability

CC(C)C[C@H](NC(=O)CCNc1ccc([N+](=O)[O-])c2nonc12)C(=O)N[C@@H](CC(C)C)C(=O)N[C@@H](CC(C)C)C(=O)N[C@@H](CC(C)C)C(=O)N[C@@H](Cc1ccc(O)cc1)C(=O)O [compound 6, NBD-βA-LLLLY] ({NBD-βAla}-LLLLY-OH)
6 remaining in HS-5 lysate ([2]; from 200 μM of 5, after 2 h of incubation): about 20% | 6 remaining in HS-5 lysate ([2]; from 200 μM of 5, after 4 hours incubation): 6.01% | critical micelle concentration (CMC) [3]: 8.1 µM

CC(C)C[C@H](NC(=O)[C@H](CC(C)C)NC(=O)[C@H](Cc1ccc(OP(=O)(O)O)cc1)NC(=O)[C@H](CC(C)C)NC(=O)[C@H](CC(C)C)NC(=O)CCNc1ccc([N+](=O)[O-])c2nonc12)C(=O)O [compound 7, NBD-βA-LLpYLL] ({NBD-βAla}-LL[pY]LL-OH)
diameters of nanofibers [1]: 6±2 nm | cytotoxicity against the iPSCs [4]: hardly exhibit cytotoxicity | NBD fluorescence in iPSCs (location of peptide assemblies) [5]: no fluorescence inside the cells | conversion ratio to dephosphorylated peptide [6]: 61.5% | half-life at 400 μM [6]: 2.09 h | half-life at 100 μM [6]: 2.12 h | half-life at 200 μM [6]: 1.87 h | critical micelle concentration (CMC) [3]: 159.9 UM | CMC of the nanofiber-forming product of dephosphorylation [3]: 87.4 µM

CC(C)C[C@@H](NC(=O)CCNc1ccc([N+](=O)[O-])c2nonc12)C(=O)N[C@H](CC(C)C)C(=O)N[C@H](CC(C)C)C(=O)N[C@H](CC(C)C)C(=O)N[C@@H](Cc1ccc(OP(=O)(O)O)cc1)C(=O)O [compound 9, NBD-βA-llllpY] ({NBD-βAla}-[dL][dL][dL][dL][pY]-OH)
diameters of nanofibers [1]: 9±2 nm | cytotoxicity against the iPSCs [4]: hardly exhibit cytotoxicity | NBD fluorescence in iPSCs (location of peptide assemblies) [5]: most of the cells exhibit no fluorescence inside the cells | conversion ratio to dephosphorylated peptide [6]: 93.3% | half-life at 400 μM [6]: 0.45 h | half-life at 100 μM [6]: 0.41 h | half-life at 200 μM [6]: 0.36 h | critical micelle concentration (CMC) [3]: 146.8 µM | CMC of the nanofiber-forming product of dephosphorylation [3]: 25.8 µM
